Values of other authors as cited in patent US6224863A, “Antibiotic composition from alcaligenes species and method for making and using the same” (University of South Carolina, priority 1998, dated 2001).

Key:
S. epidermidis = details: strains of S. epidermidis
Staphylococcus aureus = details: strains of Staphylococcus aureus

For CCCCCc1cc(O)c2ccccc2n1 [2-n-pentylquinolinol], the antibiotic activity (Vibrio harveyi) is listed as “exhibits activity”.

For C=C(CC/C=C\C=C\CC(C)CC(=O)CC(O)CNC(=O)C(C)C(C)OC(N)=O)CC(C)C/C(C)=C/C(=O)O (centres unmarked) [kalimantacin A], the antibacterial activity (S. epidermidis) is given as “only effective” and the antibacterial activity (Staphylococcus aureus) is given as “only effective”.

In the case of C=C(CC/C=C/C=C/CC(C)CC(=O)CC(O)CNC(=O)C(C)C(C)OC(N)=O)CC(C)C/C(C)=C/C(=O)O (centres unmarked) [kalimantacin B], the antibacterial activity (S. epidermidis) is listed as “only effective” and the antibacterial activity (Staphylococcus aureus) is listed as “only effective”.

In the case of C=C(CC/C=C\C=C\CC(C)CC(=O)CC(O)CNC(=O)CC(C)OC(N)=O)CC(C)C/C(C)=C/C(=O)O (centres unmarked) [kalimantacin C], the antibacterial activity (S. epidermidis) is given as “only effective” and the antibacterial activity (Staphylococcus aureus) is given as “only effective”.

In the case of Brc1[nH]c(Br)c(Br)c1Br [tetrabromopyrrole], the antibiotic activity (other marine bacteria) is listed as “effective against other marine bacteria”.
